Test results reported in patent US20140302113A1, “SYSTEMS, DEVICES, AND METHODS FOR EMBEDDING DRUG MOLECULES INTO MEDICAL CATHETERS OR TUBES” (priority 2011, published 2014).
Read-outs that look alike come from different tables or passages of the source.

Assays:
[1] = solution with pH about 7.4; cited from earlier work
[2] = format: physicochemical; settings: loaded catheter in Example 4
Protocol: 0.16 g of chlorhexidine diacetate was dissolved in 15.8 gram distilled water in a glass jar to form a clear solution. A section of a silicone coated latex Foley catheter (Bardia Foley Catheter, 16 Fr. Reorder No. 123516A, Lot MYUDR067), approximately 16 cm long, was placed into the jar and completely submerged in the solution. 0.08 g of a 10 wt % NaOH solution was added into the loading solution to increase the pH. […] The jar was closed with a cap and placed into an oven with temperatures cycling between about 62° C. and 68° C. The jar was kept in the oven for the next 120 hours and was shaken occasionally during the 120 hour heat treatment period.
The release rates of chlorhexidine from the loaded catheter in Example 4 were measured as follows. The catheter section was thoroughly washed and cut into two pieces, Section A (7.774 cm) and Section B (8.055 cm). Each section was submerged into 17 mL of a 0.15 M pH7.4 phosphate buffer held in a glass vial, which was placed into a 37° C. water bath. At each time point, the catheter section was retrieved from the glass vial, dried, and placed into another glass vial containing 17 mL of a fresh pH 7.4 phosphate buffer. The vial was then placed into the 37° C. water bath. The amount of chlorhexidine in the solution remaining in the first vial was measured with HPLC. This process was repeated at each time point. The average flux of chlorhexidine released from the catheter wall during the period between the current and previous time points was calculated by dividing the total amount of chlorhexidine in the solution (microgram) by the total surface area of the catheter section (cm^2) and by the length of time between the two time points (hour). The result is the amount of chlorhexidine released per square centimeter of the catheter wall per hour. The average chlorhexidine release flux and the average amount of chlorhexidine released from each square centimeter of the catheter wall per 24 hour period are listed in Table 3.

[3] = Foley catheter of Example 6
Protocol: The tip and the discharge end were discarded because they would not be expected to touch the patient's mucosa during the catheter use. […] The holes on both ends of each of the four catheter sections were blocked. Each of the four catheter sections was placed into a glass scintillation vial. A 0.15 M PBS solution with pH 7.4 was used as release medium. 20.7 mL of the medium was added into the vial to submerge the entire catheter section. The vial was closed tightly and a vinyl tape was wrapped around the cap to prevent solvent evaporation. The vial was placed into a 37° C. water bath with no shaking (mimicking human use), and the time was set as t=0. […] The catheter sections was removed from the vial, dried with a tissue, and placed into a new vial with the same amount of release medium. The new vial was then put back into the same water bath. This process was repeated at each time point. The samples were analyzed with HPLC.

Question: With CC(=O)O.CC(=O)O.NC(=N\CCCCCC/N=C(N)/N=C(\N)Nc1ccc(Cl)cc1)/N=C(\N)Nc1ccc(Cl)cc1 [Chlorhexidine diacetate, chlorhexidine diacetate] as the compound, how does the “concentration that can be dissolved in water” value [1] read?
Answer: The value was “higher than 1.5 wt %”.

Question: With [H]/N=C(\N/C(=N/[H])NCCCCCCNC(=N)NC(=N)Nc1ccc(Cl)cc1)Nc1ccc(Cl)cc1 [Chlorhexidine, chlorhexidine] as the compound, how does the “period with more than 1 microgram of chlorhexidine released from each square centimeter of wall surface per 24 hour” value [2] read?
Answer: Its value is “at least 11 days”.

Question: What about the “Average Chlorhexidine Amount/cm^2/24 hr” value ([2]; time 0.17 day) of the same compound?
Answer: The value was 218 micrograms.

Question: What about the “Average Chlorhexidine Amount/cm^2/24 hr” value ([2]; time 0.5 day) of the same compound?
Answer: The value was 43.9 micrograms.

Question: What about the “Average Chlorhexidine Amount/cm^2/24 hr” value ([2]; time 1.1 day) of the same compound?
Answer: Its value is 21.5 micrograms.

Question: What about the “Average Chlorhexidine Amount/cm^2/24 hr” value ([2]; time 1.6 day) of the same compound?
Answer: Its value is 13.1 micrograms.

Question: And the “Average Chlorhexidine Amount/cm^2/24 hr” value ([2]; time 2 day)?
Answer: The value was 10.2 micrograms.

Question: What about the “Average Chlorhexidine Amount/cm^2/24 hr” value ([2]; time 2.5 day) of the same compound?
Answer: Its value is 4.5 micrograms.

Question: What about the “Average Chlorhexidine Amount/cm^2/24 hr” value ([2]; time 3 day) of the same compound?
Answer: Its value is 4.3 micrograms.

Question: What about the “Average Chlorhexidine Amount/cm^2/24 hr” value ([2]; time 3.5 day) of the same compound?
Answer: Its value is 2.6 micrograms.

Question: What about the “Average Chlorhexidine Amount/cm^2/24 hr” value ([2]; time 4.0 day) of the same compound?
Answer: Its value is 3.3 micrograms.

Question: And the “Average Chlorhexidine Amount/cm^2/24 hr” value ([2]; time 4.5 day)?
Answer: Its value is 3.2 micrograms.

Question: What about the “Average Chlorhexidine Amount/cm^2/24 hr” value ([2]; time 5 day) of the same compound?
Answer: The value was 3.2 micrograms.

Question: And the “Average Chlorhexidine Amount/cm^2/24 hr” value ([2]; time 5.5 day)?
Answer: The value was 2.9 micrograms.

Question: What about the “Average Chlorhexidine Amount/cm^2/24 hr” value ([2]; time 6 day) of the same compound?
Answer: The value was 2.6 micrograms.

Question: What about the “Average Chlorhexidine Amount/cm^2/24 hr” value ([2]; time 6.5 day) of the same compound?
Answer: The value was 2.2 micrograms.

Question: And the “Average Chlorhexidine Amount/cm^2/24 hr” value ([2]; time 7 day)?
Answer: The value was 1.8 micrograms.

Question: What about the “Average Chlorhexidine Amount/cm^2/24 hr” value ([2]; time 8 day) of the same compound?
Answer: Its value is 1.2 micrograms.

Question: What about the “Average Chlorhexidine Amount/cm^2/24 hr” value ([2]; time 8.5 day) of the same compound?
Answer: Its value is 1.4 micrograms.

Question: And the “Average Chlorhexidine Amount/cm^2/24 hr” value ([2]; time 9.0 day)?
Answer: Its value is 1.7 micrograms.

Question: And the “Average Chlorhexidine Amount/cm^2/24 hr” value ([2]; time 10.0 day)?
Answer: Its value is 2.0 micrograms.

Question: And the “Average Chlorhexidine Amount/cm^2/24 hr” value ([2]; time 11 day)?
Answer: The value was 1.1 micrograms.

Question: And the “Average Chlorhexidine Amount/cm^2/24 hr” value ([2]; time 12 day)?
Answer: The value was 0.8 micrograms.

Question: And the “Average Released Chlorhexidine Amount/cm^2/24 hr” value ([3]; time 0.17 day)?
Answer: The value was 2.2 micrograms.

Question: What about the “Average Released Chlorhexidine Amount/cm^2/24 hr” value ([3]; time 0.5 day) of the same compound?
Answer: Its value is 3.8 micrograms.

Question: And the “Average Released Chlorhexidine Amount/cm^2/24 hr” value ([3]; time 1.0 day)?
Answer: Its value is 2.8 micrograms.

Question: And the “Average Released Chlorhexidine Amount/cm^2/24 hr” value ([3]; time 1.5 day)?
Answer: The value was 3.4 micrograms.

Question: And the “Average Released Chlorhexidine Amount/cm^2/24 hr” value ([3]; time 2 day)?
Answer: Its value is 3.2 micrograms.

Question: What about the “Average Released Chlorhexidine Amount/cm^2/24 hr” value ([3]; time 2.5 day) of the same compound?
Answer: The value was 2.4 micrograms.

Question: And the “Average Released Chlorhexidine Amount/cm^2/24 hr” value ([3]; time 3.1 day)?
Answer: Its value is 1.6 micrograms.

Question: And the “Average Released Chlorhexidine Amount/cm^2/24 hr” value ([3]; time 3.6 day)?
Answer: The value was 1.5 micrograms.

Question: And the “Average Released Chlorhexidine Amount/cm^2/24 hr” value ([3]; time 4 day)?
Answer: Its value is 1.7 micrograms.

Question: What about the “Average Released Chlorhexidine Amount/cm^2/24 hr” value ([3]; time 4.5 day) of the same compound?
Answer: Its value is 1.0 micrograms.

Question: And the “Average Released Chlorhexidine Amount/cm^2/24 hr” value ([3]; time 5 day)?
Answer: Its value is 1.3 micrograms.

Question: And the “Average Released Chlorhexidine Amount/cm^2/24 hr” value ([3]; time 5.5 day)?
Answer: Its value is 1.0 micrograms.

Question: And the “Average Released Chlorhexidine Amount/cm^2/24 hr” value ([3]; time 6.5 day)?
Answer: The value was 0.6 micrograms.

Question: And the “Average Released Chlorhexidine Amount/cm^2/24 hr” value ([3]; time 7 day)?
Answer: The value was 0.7 micrograms.

Question: What about the “Average Released Chlorhexidine Amount/cm^2/24 hr” value ([3]; time 7.5 day) of the same compound?
Answer: Its value is 0.6 micrograms.

Question: What about the “Average Released Chlorhexidine Amount/cm^2/24 hr” value ([3]; time 8 day) of the same compound?
Answer: The value was 0.5 micrograms.

Question: What about the “Average Released Chlorhexidine Amount/cm^2/24 hr” value ([3]; time 9 day) of the same compound?
Answer: The value was 0.5 micrograms.

Question: What about the “Average Released Chlorhexidine Amount/cm^2/24 hr” value ([3]; time 9.5 day) of the same compound?
Answer: The value was 0.5 micrograms.

Question: What about the “Average Released Chlorhexidine Amount/cm^2/24 hr” value ([3]; time 10 day) of the same compound?
Answer: The value was 0.5 micrograms.

Question: What about the “Average Released Chlorhexidine Amount/cm^2/24 hr” value ([3]; time 11 day) of the same compound?
Answer: Its value is 0.5 micrograms.

Question: What about the “Average Released Chlorhexidine Amount/cm^2/24 hr” value ([3]; time 12 day) of the same compound?
Answer: The value was 0.5 micrograms.

Question: What about the “Average Released Chlorhexidine Amount/cm^2/24 hr” value ([3]; time 14 day) of the same compound?
Answer: Its value is 0.4 micrograms.
